Experimental findings from patent US20230201244A1, “COMPOSITIONS AND METHODS FOR PREVENTING AND/OR TREATING MICROBIAL INFECTIONS” (University of Louisville Research Foundation, Inc., priority 2020, published 2023) are described below.

Each structure is given as a SMILES string.

In experiment [1] the test system is NF-κB (p65). In kind it is in vivo, C57BL/6 mice. The conditions noted are these: inhibitor daily for three days at 5 mg/kg/d before intratracheal exosomes.
Experiment [2] relates to TNFα, IL-1β and IL-6. The experiment is described as follows: ELISA of inflammatory cytokines in lung or lung macrophages of mice given exosomes^Nsp12Nsp13. In kind it is in vivo, C57BL/6 mice. Conditions: lung macrophages, TNFα and IL-6 ELISA, i.p. pretreatment, FIG. 10B.
The test system of experiment [3] is lung epithelial cells (EpCAM^+). The experiment is described as follows: Lung apoptosis in mice given exosomes^Nsp12Nsp13 (TUNEL, Annexin V flow cytometry of EpCAM+ cells). In kind it is in vivo, C57BL/6 mice. The conditions noted are these: inhibitor pretreatment.
Experiment [4] concerns lung epithelial A549 cells. Briefly: Apoptosis of A549 cells by flow cytometry (Annexin V/7-AAD). It is filed as cell-based, human.

With `Cc1ccc(S(=O)(=O)/C=C/C#N)cc1` [Bay 11-7821], the “lung macrophage NF-κB activity induced by exosomes^Nsp12Nsp13” value in experiment [1] was “inhibited”. Also, the “inflammatory cytokines induced by exosomes^Nsp12Nsp13” value in experiment [2] is reported as “attenuation of inflammatory cytokines”. Also, the “induction of lung epithelial cell (EpCAM+) apoptosis” value in experiment [3] (Annexin V flow cytometry, FIG. 5E) is “blocked”. Also, in experiment [3] (lung sections, FIG. 5D), the “lung apoptosis induced by exosomes^Nsp12Nsp13 (TUNEL staining)” value is recorded as “reduced”. Moreover, the “A549 cell apoptosis on direct exposure” value in experiment [4] (A549 cells presented to Nsp12/13, Bay 11-7821, FIG. 5F top panel) is reported as “little influence”. The “apoptosis of lung epithelial cells induced by supernatant from U937 cells treated with exosomes^Nsp12Nsp13” value in experiment [4] (A549 cells, antibodies 10 ng/ml, FIG. 5F middle and bottom panel) is “inhibited”.
